# Test system: NIH3T3
# Experiment: Concentration of compound inhibiting Pgp-mediated DNM transport in NIH3T3 cells transfected with human MDR1 protein
# Assay type: functional, cell-based
row,Structure (SMILES),Ki [nM]
1,CC(=O)OC[C@]12[C@H](OC(=O)c3ccccc3)C(=O)[C@@H]3[C@@H](OC(C)=O)[C@]1(OC3(C)C)[C@@](C)(O)C[C@H](OC(=O)c1ccccc1)[C@@H]2OC(=O)c1ccccc1,1030
2,CC(=O)OC[C@]12[C@H](OC(=O)c3ccccc3)C(=O)[C@@H]3[C@@H](OC(C)=O)[C@]1(OC3(C)C)[C@H](C)C[C@H](OC(C)=O)[C@@H]2OC(C)=O,2540
3,CC(=O)OC[C@]12[C@@H](OC(=O)c3ccccc3)C[C@@H]3[C@@H](OC(C)=O)[C@]1(OC3(C)C)[C@H](C)C[C@H](OC(C)=O)[C@@H]2OC(C)=O,2360
4,CC(=O)OC[C@]12[C@@H](OC(=O)c3ccccc3)[C@@H](OC(=O)c3ccccc3)[C@@H]3[C@@H](OC(C)=O)[C@]1(OC3(C)C)[C@@](C)(O)C[C@H](OC(C)=O)[C@@H]2OC(C)=O,1740
5,CC(=O)OC[C@]12[C@H](OC(C)=O)C(=O)[C@@H]3[C@@H](OC(C)=O)[C@]1(OC3(C)C)[C@H](C)C[C@H](OC(C)=O)[C@@H]2OC(=O)c1ccccc1,5740
6,CC(=O)OC[C@]12[C@H](OC(=O)c3ccccc3)C(=O)[C@@H]3[C@@H](OC(C)=O)[C@]1(OC3(C)C)[C@H](C)C[C@H](OC(C)=O)[C@@H]2OC(=O)c1ccccc1,1630
7,CC(=O)OC[C@]12[C@H](OC(=O)c3ccccc3)C(=O)[C@@H]3[C@@H](OC(C)=O)[C@]1(OC3(C)C)[C@@](C)(O)C[C@H](OC(C)=O)[C@@H]2OC(=O)c1ccccc1,3010
8,CC(=O)OC[C@]12[C@H](OC(C)=O)C(=O)[C@@H]3[C@@H](OC(C)=O)[C@]1(OC3(C)C)[C@H](C)C[C@H](OC(C)=O)[C@@H]2OC(C)=O,9830
9,CC(=O)OC[C@]12[C@H](OC(C)=O)C(=O)[C@@H]3[C@@H](OC(C)=O)[C@]1(OC3(C)C)[C@@](C)(O)[C@@H](OC(C)=O)[C@H](OC(C)=O)[C@@H]2OC(=O)c1ccccc1,6520
10,CC(=O)O[C@H]1C[C@](C)(O)[C@]23OC(C)(C)[C@H]([C@H](OC(=O)c4ccccc4)[C@H](OC(=O)c4ccccc4)[C@]2(C)[C@H]1OC(=O)c1ccccc1)[C@H]3OC(C)=O,913
11,CC(=O)OC[C@]12[C@@H](OC(=O)c3ccccc3)C[C@@H]3[C@@H](OC(C)=O)[C@]1(OC3(C)C)[C@@](C)(O)C[C@H](OC(C)=O)[C@@H]2OC(C)=O,4390
12,CC(=O)O[C@@H]1[C@H]2[C@H](O)[C@H](OC(=O)c3ccccc3)[C@]3(C)[C@@H](OC(=O)c4ccccc4)[C@@H](OC(=O)c4ccccc4)C[C@](C)(O)[C@@]13OC2(C)C,1210
13,CC(=O)O[C@H]1C[C@](C)(O)[C@]23OC(C)(C)[C@H]([C@H](OC(=O)c4ccccc4)[C@H](OC(=O)c4ccccc4)[C@]2(CO)[C@H]1OC(C)=O)[C@H]3OC(C)=O,7040
14,CC(=O)OC[C@]12[C@H](OC(=O)c3ccccc3)C(=O)[C@@H]3[C@@H](OC(C)=O)[C@]1(OC3(C)C)[C@H](C)C[C@H](OC(C)=O)[C@@H]2O,18400
15,CC(=O)OC[C@]12[C@H](OC(=O)c3ccccc3)C(=O)[C@@H]3[C@@H](O)[C@]1(OC3(C)C)[C@@](C)(O)C[C@H](OC(C)=O)[C@@H]2OC(=O)c1ccccc1,3970
16,CC(=O)OC[C@]12[C@@H](OC(=O)c3ccccc3)[C@@H](OC(=O)c3ccccc3)[C@@H]3[C@@H](OC(C)=O)[C@]1(OC3(C)C)[C@H](C)C[C@H](OC(C)=O)[C@@H]2OC(C)=O,1710

# Test system: NIH3T3
row,Structure (SMILES),Reversal ability
1,CC(=O)OC[C@]12[C@H](OC(=O)c3ccccc3)C(=O)[C@@H]3[C@@H](OC(C)=O)[C@]1(OC3(C)C)[C@@](C)(O)C[C@H](OC(=O)c1ccccc1)[C@@H]2OC(=O)c1ccccc1,9.93
2,CC(=O)OC[C@]12[C@@H](OC(=O)c3ccccc3)[C@@H](OC(=O)c3ccccc3)[C@@H]3[C@@H](OC(C)=O)[C@]1(OC3(C)C)[C@@](C)(O)C[C@H](OC(C)=O)[C@@H]2OC(C)=O,4.26
3,CC(=O)OC[C@]12[C@H](OC(=O)c3ccccc3)C(=O)[C@@H]3[C@@H](OC(C)=O)[C@]1(OC3(C)C)[C@H](C)C[C@H](OC(C)=O)[C@@H]2OC(=O)c1ccccc1,4.21
4,COc1ccc(CCN(C)CCCC(C#N)(c2ccc(OC)c(OC)c2)C(C)C)cc1OC (configuration not stated),6.12
5,CC(=O)O[C@H]1C[C@](C)(O)[C@]23OC(C)(C)[C@H]([C@H](OC(=O)c4ccccc4)[C@H](OC(=O)c4ccccc4)[C@]2(C)[C@H]1OC(=O)c1ccccc1)[C@H]3OC(C)=O,8.26
6,CC(=O)O[C@@H]1[C@H]2[C@H](O)[C@H](OC(=O)c3ccccc3)[C@]3(C)[C@@H](OC(=O)c4ccccc4)[C@@H](OC(=O)c4ccccc4)C[C@](C)(O)[C@@]13OC2(C)C,6.32

# Test system: NIH3T3
# Remark: another data set of the same source
row,Structure (SMILES),Reversal ability
1,CC(=O)OC[C@]12[C@H](OC(=O)c3ccccc3)C(=O)[C@@H]3[C@@H](OC(C)=O)[C@]1(OC3(C)C)[C@@](C)(O)C[C@H](OC(=O)c1ccccc1)[C@@H]2OC(=O)c1ccccc1,7.31
2,CC(=O)OC[C@]12[C@@H](OC(=O)c3ccccc3)[C@@H](OC(=O)c3ccccc3)[C@@H]3[C@@H](OC(C)=O)[C@]1(OC3(C)C)[C@@](C)(O)C[C@H](OC(C)=O)[C@@H]2OC(C)=O,6.23
3,CC(=O)OC[C@]12[C@H](OC(=O)c3ccccc3)C(=O)[C@@H]3[C@@H](OC(C)=O)[C@]1(OC3(C)C)[C@H](C)C[C@H](OC(C)=O)[C@@H]2OC(=O)c1ccccc1,5.72
4,COc1ccc(CCN(C)CCCC(C#N)(c2ccc(OC)c(OC)c2)C(C)C)cc1OC (configuration not stated),6.21
5,CC(=O)O[C@H]1C[C@](C)(O)[C@]23OC(C)(C)[C@H]([C@H](OC(=O)c4ccccc4)[C@H](OC(=O)c4ccccc4)[C@]2(C)[C@H]1OC(=O)c1ccccc1)[C@H]3OC(C)=O,16.55
6,CC(=O)O[C@@H]1[C@H]2[C@H](O)[C@H](OC(=O)c3ccccc3)[C@]3(C)[C@@H](OC(=O)c4ccccc4)[C@@H](OC(=O)c4ccccc4)C[C@](C)(O)[C@@]13OC2(C)C,5.38

# Test system: NIH3T3
# Remark: another data set of the same source
row,Structure (SMILES),Reversal ability
1,CC(=O)OC[C@]12[C@H](OC(=O)c3ccccc3)C(=O)[C@@H]3[C@@H](OC(C)=O)[C@]1(OC3(C)C)[C@@](C)(O)C[C@H](OC(=O)c1ccccc1)[C@@H]2OC(=O)c1ccccc1,15.41
2,CC(=O)OC[C@]12[C@@H](OC(=O)c3ccccc3)[C@@H](OC(=O)c3ccccc3)[C@@H]3[C@@H](OC(C)=O)[C@]1(OC3(C)C)[C@@](C)(O)C[C@H](OC(C)=O)[C@@H]2OC(C)=O,10.78
3,CC(=O)OC[C@]12[C@H](OC(=O)c3ccccc3)C(=O)[C@@H]3[C@@H](OC(C)=O)[C@]1(OC3(C)C)[C@H](C)C[C@H](OC(C)=O)[C@@H]2OC(=O)c1ccccc1,6.21
4,COc1ccc(CCN(C)CCCC(C#N)(c2ccc(OC)c(OC)c2)C(C)C)cc1OC (configuration not stated),9.55
5,CC(=O)O[C@H]1C[C@](C)(O)[C@]23OC(C)(C)[C@H]([C@H](OC(=O)c4ccccc4)[C@H](OC(=O)c4ccccc4)[C@]2(C)[C@H]1OC(=O)c1ccccc1)[C@H]3OC(C)=O,9.55
6,CC(=O)O[C@@H]1[C@H]2[C@H](O)[C@H](OC(=O)c3ccccc3)[C@]3(C)[C@@H](OC(=O)c4ccccc4)[C@@H](OC(=O)c4ccccc4)C[C@](C)(O)[C@@]13OC2(C)C,11.13

# Test system: NIH3T3
# Remark: another data set of the same source
row,Structure (SMILES),Reversal ability
1,CC(=O)OC[C@]12[C@H](OC(=O)c3ccccc3)C(=O)[C@@H]3[C@@H](OC(C)=O)[C@]1(OC3(C)C)[C@@](C)(O)C[C@H](OC(=O)c1ccccc1)[C@@H]2OC(=O)c1ccccc1,8.09
2,CC(=O)OC[C@]12[C@@H](OC(=O)c3ccccc3)[C@@H](OC(=O)c3ccccc3)[C@@H]3[C@@H](OC(C)=O)[C@]1(OC3(C)C)[C@@](C)(O)C[C@H](OC(C)=O)[C@@H]2OC(C)=O,102.17
3,CC(=O)OC[C@]12[C@H](OC(=O)c3ccccc3)C(=O)[C@@H]3[C@@H](OC(C)=O)[C@]1(OC3(C)C)[C@H](C)C[C@H](OC(C)=O)[C@@H]2OC(=O)c1ccccc1,213.64
4,COc1ccc(CCN(C)CCCC(C#N)(c2ccc(OC)c(OC)c2)C(C)C)cc1OC (configuration not stated),13.18
5,CC(=O)O[C@H]1C[C@](C)(O)[C@]23OC(C)(C)[C@H]([C@H](OC(=O)c4ccccc4)[C@H](OC(=O)c4ccccc4)[C@]2(C)[C@H]1OC(=O)c1ccccc1)[C@H]3OC(C)=O,87.04
6,CC(=O)O[C@@H]1[C@H]2[C@H](O)[C@H](OC(=O)c3ccccc3)[C@]3(C)[C@@H](OC(=O)c4ccccc4)[C@@H](OC(=O)c4ccccc4)C[C@](C)(O)[C@@]13OC2(C)C,41.23

# Test system: NIH3T3
# Remark: another data set of the same source
row,Structure (SMILES),Reversal ability
1,CC(=O)OC[C@]12[C@H](OC(=O)c3ccccc3)C(=O)[C@@H]3[C@@H](OC(C)=O)[C@]1(OC3(C)C)[C@@](C)(O)C[C@H](OC(=O)c1ccccc1)[C@@H]2OC(=O)c1ccccc1,16.64
2,CC(=O)OC[C@]12[C@@H](OC(=O)c3ccccc3)[C@@H](OC(=O)c3ccccc3)[C@@H]3[C@@H](OC(C)=O)[C@]1(OC3(C)C)[C@@](C)(O)C[C@H](OC(C)=O)[C@@H]2OC(C)=O,11.13
3,CC(=O)OC[C@]12[C@H](OC(=O)c3ccccc3)C(=O)[C@@H]3[C@@H](OC(C)=O)[C@]1(OC3(C)C)[C@H](C)C[C@H](OC(C)=O)[C@@H]2OC(=O)c1ccccc1,11.75
4,COc1ccc(CCN(C)CCCC(C#N)(c2ccc(OC)c(OC)c2)C(C)C)cc1OC (configuration not stated),10.2
5,CC(=O)O[C@H]1C[C@](C)(O)[C@]23OC(C)(C)[C@H]([C@H](OC(=O)c4ccccc4)[C@H](OC(=O)c4ccccc4)[C@]2(C)[C@H]1OC(=O)c1ccccc1)[C@H]3OC(C)=O,12.72
6,CC(=O)O[C@@H]1[C@H]2[C@H](O)[C@H](OC(=O)c3ccccc3)[C@]3(C)[C@@H](OC(=O)c4ccccc4)[C@@H](OC(=O)c4ccccc4)C[C@](C)(O)[C@@]13OC2(C)C,15.86

# Test system: NIH3T3
# Remark: another data set of the same source
row,Structure (SMILES),Reversal ability
1,CC(=O)OC[C@]12[C@H](OC(=O)c3ccccc3)C(=O)[C@@H]3[C@@H](OC(C)=O)[C@]1(OC3(C)C)[C@@](C)(O)C[C@H](OC(=O)c1ccccc1)[C@@H]2OC(=O)c1ccccc1,33.1
2,CC(=O)OC[C@]12[C@@H](OC(=O)c3ccccc3)[C@@H](OC(=O)c3ccccc3)[C@@H]3[C@@H](OC(C)=O)[C@]1(OC3(C)C)[C@@](C)(O)C[C@H](OC(C)=O)[C@@H]2OC(C)=O,233.6
3,CC(=O)OC[C@]12[C@H](OC(=O)c3ccccc3)C(=O)[C@@H]3[C@@H](OC(C)=O)[C@]1(OC3(C)C)[C@H](C)C[C@H](OC(C)=O)[C@@H]2OC(=O)c1ccccc1,233.37
4,COc1ccc(CCN(C)CCCC(C#N)(c2ccc(OC)c(OC)c2)C(C)C)cc1OC (configuration not stated),18.76
5,CC(=O)O[C@H]1C[C@](C)(O)[C@]23OC(C)(C)[C@H]([C@H](OC(=O)c4ccccc4)[C@H](OC(=O)c4ccccc4)[C@]2(C)[C@H]1OC(=O)c1ccccc1)[C@H]3OC(C)=O,90.39
6,CC(=O)O[C@@H]1[C@H]2[C@H](O)[C@H](OC(=O)c3ccccc3)[C@]3(C)[C@@H](OC(=O)c4ccccc4)[C@@H](OC(=O)c4ccccc4)C[C@](C)(O)[C@@]13OC2(C)C,57.32

# Source: ChEMBL document CHEMBL1140287, “Reversion of human Pgp-dependent multidrug resistance by new sesquiterpenes from Zinowiewia costaricensis” (J Med Chem, 2005)
